Measured values reported in patent US20020151591A1, “Combination use of acetylcholinesterase inhibitors and GABAa inverse agonists for the treatment of cognitive disorders” (priority 2000, published 2002).

Tested on: scopolamine-induced retention deficit in male Sprague Dawley rats
Experiment: Scopolamine-induced memory deficit in the spatial water maze task
Type: in vivo, rat
Conditions: IV 5 minutes prior to scopolamine 0.125 mg/kg IP; sub-efficacious doses; retention tested one day after training; Fisher LSD p<0.05 vs PEG/scopolamine
Description: Subjects: Animals used in these studies were naive male Sprague Dawley rats (SASCO St. Louis) weighing between 200-250 grams. Animals were housed in groups of three in a temperature (22° C.[…]) and humidity (40-70% relative humidity) controlled vivarium with a 12-hour light/dark cycle. Animals had ad lib access to food and water.
Drugs: Aricept and said compound of Formula I were each dissolved in 50% polyethylene glycol (PEG), and scopolamine HCI (Sigma) was dissolved in 0.9% saline. Aricept and said compound of Formula I (alone or in combination) or 50% PEG was administered intravenously (IV) 5 minutes prior to scopolamine (0.125 mg/kg) or saline given intraperitoneally (IP). Training commenced 15 minutes after the IP injection. […]
Procedure: An animal was initially placed on the platform in the tank for 20 seconds. […] For each trial during acquisition and retention, a computerized video tracking system recorded the latency (sec) to reach the submerged platform the total distance traveled (m) in the water maze, the number of zone (quadrant) transitions made, and the swim speed of the animal.
Data Analysis: A one-way ANOVA was conducted on the latency to locate the platform during retention testing. Tests for significant differences between individual treatment groups were assessed using a Fisher LSD test (p<0.05).

SMILES: COc1cc2c(cc1OC)C(=O)C(CC1CCN(Cc3ccccc3)CC1)C2 (stereo not shown) [Aricept, donepezil]
- attenuation of scopolamine-induced retention deficit (latency to locate the platform during retention testing): did not significantly attenuate
